This test has as its system MDA-MB-231 complex spheroid viability. In words: Anticancer human tumor MDA-MB-231/ATCC cell line growth inhibition.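 On all read-outs here: drug exposure lasted 7 days starting on day 3 of spheroid growth.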 The conditions noted are these: for viability, T/C: stronger effect = lower value. From the text:
Multicellular complex tumor spheroid response to LSD1 Inhibitor Iadademstat in combination with a variety of drugs and investigational agents in selected tumor cell lines
The current study was undertaken to assess response to LSD1 inhibitors in combination with standard-of-care drugs and investigational agents in solid tumor complex spheroid models as well as in the K-562 leukemia. Complex spheroids include a stromal component modeled by human endothelial cells (HUVEC) and fibroblasts modeled by human mesenchymal stem cells (MSCs). The concentration ranges selected for each drug and investigational agent were based upon clinically achievable concentrations if the clinical Cmax of the agent was known.
Compounds. The drugs and investigational agents used in this study are listed on Table 1. All of the agents used, including staurosporine (NSC755774) and gemcitabine (NSC613327), were obtained from the Developmental Therapeutics Program, NCI. FDA-approved anticancer drugs are available from the NCI at http://dtp.nci.nih.gov/branches/dscb/oncology_drugset_explanation.html. Drugs and investigational agents were >95% pure by proton nuclear magnetic resonance (NMR) and liquid chromatography/mass spectrometry (LC/MS). Stock solutions were prepared at 400x in DMSO, stored at -70 degrees C, and diluted in fresh medium prior to their use. The final concentration of DMSO in cell culture wells never exceeded 0.25% (v/v). The FDA-approved anticancer drug set is available from the Developmental Therapeutics Program at https://dtp.cancer.gov/organization/dscb/obtaining/available_plates.htm. All drugs and investigational agents were tested over a range starting from a high concentration at or near the clinical Cmax and decreasing in half-log increments. If the clinical Cmax for an agent had not been determined, the highest concentration tested was 10 microM.
Cell Lines. The patient-derived cancer cell (PDC) lines: 292921-168-R-J2-PDC, K24384-001-R-PDC, and 521955-158-R2-J5-PDC pancreatic carcinomas, 556581-035-R-J1 ovarian carcinoma, 324938-238-R-J1-PDC, 855422-203-R-J1-PDC and 883617-216-R-J1-PDC urothelial bladder carcinomas, 743489-274-T-PDC renal cell carcinoma, 138582-R-J1 Merkel cell tumor, K60290-347-R-J1 and K57222-313-R-J1-PDC glioblastomas, 653999-131-R-J2-PDC, LG0703-F948-PDC, and 349418-098-R-PDC non-small cell lung carcinomas, 885512-296-R-J2-PDC, 171881-019-R-J1-PDC breast carcinomas and 186277-243-T-J2-PDC and 233499-124-R-J2-PDC colon carcinomas were obtained from the NCI Patient-Derived Models Repository (PDMR, https://pdmr.cancer.gov). The established cell lines NCI/ADR-RES (RRID:CVCL_14520 and OVCAR-5 (RRID:CVCL_1628) ovarian carcinomas, 786-O (RRID:CVCL_1051) and A498 (RRID:CVCL_A498) renal cell carcinoma, NCI-H211 (ATCC, cat. CRL-5824; RRID:CVCL_1529), NCI-H196 (ATCC, cat. CRL-5823, RRID:CVCL_1509), SW 1271 (ATCC, cat. CRL-2177, RRID:CVCL_1716) and NCI-H1876 (ATCC, cat. CRL-5902, RRID:CVCL_1503) small cell lung carcinomas, MDA-MB-231 (RRID:CVCL_0062) and MDA-MB-468 (RRID:CVCL_0419)breast carcinomas (10-12). Pooled donor human umbilical vein endothelial cells (HUVEC, Lonza, cat. CC-2519) and human mesenchymal stem cells (hMSC, Lonza, cat. PT-2501) were purchased from Lonza (Walkersville, MD).
Cell Culture. All cells were maintained in an incubator at 37 degrees C and 5% CO2 with 95% humidity. The PDC lines were cultured according to standard operating procedures established by the NCI PDMR (https://pdmr.cancer.gov). Briefly all PDCs were thawed and cultured in Matrigel-coated flasks prepared with a working solution of 1X Ham's F-12 nutrient mix, without supplementation (Invitrogen, Waltham, MA, cat. 11765054), 100 U/mL penicillin-streptomycin (Invitrogen, cat. 15140122), and 2.5% Matrigel (Corning Inc., Corning, NY, cat. 354248) for the first three passages. […]

“And” between values parts separate entries of the source, which are not always exact repeats. Equal values may be shown once.

In the case of `CC(C)c1c(-c2ccccc2)nc2c(C#N)c[nH]n2c1=O`, the viability, T/C by setting is: (compound 0.0316 µM) 101% and 102%; (compound 0.1 µM) 94.7% and 104%; (compound 0.316 µM) 97.9% and 117%; (compound 1 µM) 106% and 112%; (compound 3.16 µM) 108% and 121%; (compound 10 µM) 102% and 113%. The IC50 (curve of compound) is above 10000 nM.
As for `COc1ccc([C@@H](O)c2cc(-c3ncnc4cc(N5CCOCC5)ccc34)c(F)cc2Cl)nn1`, the viability, T/C is 93.7% and 82% (compound 0.0316 µM); 76.6% and 85.5% (compound 0.1 µM); 53.9% and 64.1% (compound 0.316 µM); 39.6% and 43.1% (compound 1 µM); 27.3% and 22.8% (compound 3.16 µM); 23.2% and 13.2% (compound 10 µM). Besides, the IC50 (curve of compound) is 449 nM and 700 nM.
With `NC1CC1c1ccc(-c2cccc(O)c2)cc1` (stereo not drawn), the viability, T/C is 68.1% [middle of 25 runs] (compound 0.316 µM), 62.9% [middle of 25 runs] (compound 1 µM), 64.5% [middle of 25 runs] (compound 3.16 µM) and 47.7% [middle of 25 runs] (compound 10 µM).
As for `NC1CCC(NC2CC2c2ccccc2)CC1` (stereo not drawn), the viability, T/C runs as follows: (compound 0.1 µM) 102% [middle of 25 runs]; (compound 0.316 µM) 106% and 102%; (compound 1 µM) 99.7% [middle of 25 runs]; (compound 10 µM) 61% [middle of 23 runs]. Moreover, the IC50 (compound alone, run of 01/18/2022) is above 10000 nM.
`Nc1ncn(C2CC(O)C(CO)O2)c(=O)n1` (stereo not drawn) + NC1CC1c1ccc(-c2cccc(O)c2)cc1: the IC50 runs as follows: (curve of first compound, second compound 0.1 µM) above 1000 nM; (curve of first compound, second compound 0.316 µM) 560 nM; (curve of first compound, second compound 1 µM) 183 nM; (curve of first compound, second compound 3.16 µM) 251 nM; (curve of first compound, second compound 10 µM) below 3.16 nM. The viability, T/C reads like this: (second compound 0.1 µM, first compound 0.00316 µM) 74.5%; (second compound 0.1 µM, first compound 0.01 µM) 75.8%; (second compound 0.1 µM, first compound 0.0316 µM) 76.2%; (second compound 0.1 µM, first compound 0.1 µM) 66.8%; (second compound 0.1 µM, first compound 0.316 µM) 55%; (second compound 0.1 µM, first compound 1 µM) 56%. In addition, the viability, T/C (second compound 0.316 µM, first compound 0.00316 µM) is 70.4%; the viability, T/C (second compound 0.316 µM, first compound 0.01 µM) was 63.5%; the viability, T/C (second compound 0.316 µM, first compound 0.0316 µM) is 61.4%; the viability, T/C (second compound 0.316 µM, first compound 0.1 µM) was 51.8%; the viability, T/C (second compound 0.316 µM, first compound 0.316 µM) is 50.9%; the viability, T/C (second compound 0.316 µM, first compound 1 µM) is 49.6%. The viability, T/C (second compound 1 µM, first compound 0.00316 µM) is 60.5%; the viability, T/C (second compound 1 µM, first compound 0.01 µM) is 58.4%; the viability, T/C (second compound 1 µM, first compound 0.0316 µM) is 57.3%; the viability, T/C (second compound 1 µM, first compound 0.1 µM) is 50.4%; the viability, T/C (second compound 1 µM, first compound 0.316 µM) is 47.7%; the viability, T/C (second compound 1 µM, first compound 1 µM) is 45%. In addition, the viability, T/C by setting is: (second compound 3.16 µM, first compound 0.00316 µM) 70.2%; (second compound 3.16 µM, first compound 0.01 µM) 63.4%; (second compound 3.16 µM, first compound 0.0316 µM) 60.6%; (second compound 3.16 µM, first compound 0.1 µM) 53.3%; (second compound 3.16 µM, first compound 0.316 µM) 49.6%; (second compound 3.16 µM, first compound 1 µM) 43.7%. Further, the viability, T/C was 49.7% (second compound 10 µM, first compound 0.00316 µM); 45.3% (second compound 10 µM, first compound 0.01 µM); 43.9% (second compound 10 µM, first compound 0.0316 µM); 41.5% (second compound 10 µM, first compound 0.1 µM); 40.3% (second compound 10 µM, first compound 0.316 µM); 37.1% (second compound 10 µM, first compound 1 µM).

A word on the viability, T/C: it is the result in the treated group divided by that in the control group, in per cent. The IC50 is the concentration that gives 50% inhibition.

The values above are taken from PubChem BioAssay AID1918953 (Molecular Pharmacology Branch, DTP, NCI, 2023).
